Test results as given in PMC13249423, “Capsaicin acts as a novel NRF2 agonist to suppress ethanol induced gastric mucosa oxidative damage by directly disrupting the KEAP1-NRF2 interaction” (eLife, 2026).

Tests used:
KEAP1 (Kelch domain, WT) = biological target: T1, KEAP1 (Kelch domain, WT) (Homo sapiens, UniProt Q14145); assay: BLI with purified biotinylated Kelch (also HDX-MS, CETSA in GES-1 cells, pull-down and SPR disruption of KEAP1-NRF2); assay type: binding
T1 construct: Kelch domain of KEAP1 (Lys312-Cys624)
T1 sequence (Q14145 312-624): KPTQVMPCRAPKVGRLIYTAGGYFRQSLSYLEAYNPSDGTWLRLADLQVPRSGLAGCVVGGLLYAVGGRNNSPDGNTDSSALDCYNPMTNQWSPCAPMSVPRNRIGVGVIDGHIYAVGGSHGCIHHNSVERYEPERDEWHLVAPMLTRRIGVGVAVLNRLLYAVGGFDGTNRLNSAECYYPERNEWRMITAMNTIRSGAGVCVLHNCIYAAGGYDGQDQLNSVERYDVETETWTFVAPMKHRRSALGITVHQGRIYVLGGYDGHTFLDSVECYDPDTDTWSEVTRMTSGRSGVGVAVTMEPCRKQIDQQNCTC

[1] = biological target: T2, KEAP1 (mutant Kelch domain) (Homo sapiens, UniProt Q14145, N382A/N414A/R380A/R415A/S602A/Y334A/Y572A); assay: BLI with purified biotinylated mutant Kelch; assay type: binding
T2 construct: Kelch domain of KEAP1 (Lys312-Cys624)
T2 sequence (Q14145 312-624 Y334A/R380A/N382A/N414A/R415A/Y572A/S602A): as the sequence (Q14145 312-624) above, with Y23A, R69A, N71A, N103A, R104A, Y261A, S291A counted along it

Compound: COc1cc(CNC(=O)CCCC/C=C/C(C)C)ccc1O [CAP, capsaicin]
- Kd (KEAP1 (Kelch domain, WT)): 31.5 µM
- Kd [1]: 102 µM
